Measurements as given in patent US8716288B2, “Composition comprising benproperine derivatives as active ingredients for preventing and treating angiogenesis-related diseases” (Korea Research Institute of Bioscience and Biotechnology, priority 2010, dated 2014).
Marks after values point to notes of the source that are not given here.

Legend:
[1] = Acute toxicity experiment of oral administration to rats; conditions: rat, in vivo, 1000 mg/kg
Method: In order to identify the toxicity of benproperine and pharmaceutically acceptable salt thereof according to the present invention, acute toxicity experiment was performed with laboratory animal as the subject as follow.
After 6-week-old specific pathogen free (SPF) SD bred rats were divided into groups of 2 specimens, and were orally administered once with benproperine which was prepared in Reference Example 1 and dissolved in injectable distilled water with a dose of 1000 mg/kg.

[2] = tested on: melanoma cell line B16F10; assay: In vitro cell migration, trans-well assay; format: cell-based, mouse; conditions: 10 μM, B16F10, FIG. 5
[3] = tested on: B16F10 human melanoma cells; assay: In vivo metastasis of cancer, melanoma cells inoculated to tail vein, lung colony count; design: species or system C57BL/6 mouse; conditions: 50 mg/kg intraperitoneally once a day, 14 times in total; for Inhibition rate (%) of metastasis: compared with control group, p < 0.001
Method: In order to analyze inhibitory activity against in vivo cell migration of benproperine according to the present invention, inhibitory activity against metastasis of cancer of benproperine was analyzed using tumor model where melanoma cells are transplanted.
Specifically, B16F10 […] melanoma cell line (ATCC-CRL-6475) was inoculated to DMEM (GIBCO, USA) medium containing 10% FBS (GIBCO, USA), and cultured at 5% CO2, 37° C. 7-week-old female specific pathogen free (SPF) C57BL/6 mouse was adapted to the laboratory environment by supplying enough antibiotic-free pellet feed (Samyang feed Inc., South Korea) and sterilized tap water, and then used in the experiment.
Cultured B16F10 […] melanoma cells were suspended in PBS 200 μl at the concentration of 2×10^6 cells/ml, and inoculated […] to tail vein of the above mouse using a 26 gauge needle. After 3 hours of inoculation, the mice were divided into two groups in which the control group treated with sterile distilled water and the experimental group was intraperitoneally administered with benproperine of 50 mg/kg once a day, 14 times in total. The administration continued for 13 consecutive days, and then stopped. On day after the administration, autopsy was performed to the mouse of each group to extract the lung, and the number of colonies of metastasized cancer cells (melanoma cells) was counted.

[4] = tested on: pancreatic cancer cell line AsPc-1 cells; assay: In vitro cell migration, trans-well assay; format: cell-based, human; conditions: 10 μM, AsPc-1, FIG. 5
[5] = tested on: DLD-1 cell (human colorectal cancer cell line in which PRL-3 is over-expressed); assay: In vitro cell migration, trans-well assay; format: cell-based; conditions: for inhibitory activity against cell migration for colorectal cancer cell line: DLD-1, compared with control sample of 0.1% DMSO, FIG. 4
Method: In order to analyze inhibitory activity against in vitro cell migration of the benproperine derivative according to the present invention, after DLD-1 cell (ATCC-CCL-221), which is the human colorectal cancer cell lines in which PRL-3, cancer metastasis-related genes, is over-expressed, was grown around by 90% on the culture plate containing RPMI medium, the medium was removed and the cell was washed with PBS. The washed cell was processed with trypsin-EDTA, cultured CO2 incubator at 37° C. for […], and then detached. The resultant cells in which 10% FBS-containing RPMI medium was added were collected in the falcon tube and the medium was removed by centrifugation. The process in which FBS-free RPMI medium were added in the obtained cells and the medium was removed by centrifugation was repeated twice. After the obtained cells in which FBS-free RPMI medium was added were suspended, the number of cells was counted using a hemocytometer.
The cells of 8×10^4 cells/200 μl were added to trans-wells which were placed on 24-well plates. FBS-free RPMI medium of 500 μl was added using the empty space where trans-wells were placed on well plates and cultured in a CO2 incubator at 37° C. for 12 to 16 hours. After the medium has been removed by placing trans-wells upside down on hand towel following culture, crystal violet of 500 μl (20% MeOH in 5 mg/ml) was added to each well of 24-well plates and trans-wells were put in a CO2 incubator for 30 minutes. Stained trans-wells were washed with PBS and placed upside down on hand towel so that the remaining solution was impregnated. Membrane was placed on the cover slip with the side where the cells didn't move facing upwards and wiped well with a cotton swab. The cover slip on whose edges nail polish was applied a little was put on a slide glass and fixed. The prepared sample was photographed with an inverted microscope (TE 300, Nikon, Japan) equipped with digital camera and the number of cells having moved was counted.
Inhibitory activity against cell migration of benproperine and pharmaceutically acceptable salt thereof in Formulas 2 to 4 according to the present invention was observed by the above method, and inhibition rate was calculated by the Mathematical Equation 1.
Wherein the control sample was observed by adding 0.1% dimethyl sulfoxide (DMSO) only without addition of the compound in the present invention.

[6] = In vitro cell migration, trans-well assay; format: cell-based, human; conditions: 10 μM, A375P, FIG. 5
[7] = tested on: vascular endothelial cell HUVECs; assay: In vitro endothelial morphogenesis assay (tube formation on Matrigel); format: cell-based, human; conditions: 24 hours, FIG. 6
Method: Specifically, HUVECs (ATCC-CRL-2873) was brought into the starvation state by culturing in a serum-free medium overnight. Matrigel matrix (BD biosciences) of 0.2 ml was added in each well of 24-well plates and placed in the 37° C. incubator for 1 hour to coat the surface of well. 0.2 ml 2×10^4 cells prepared in the above were added to each well coated with Matrigel matrix and cultured in a CO2 incubator for 30 minutes. After culture, fresh medium containing benproperine of 1, 5, and 10 μM concentration was added in each well followed by the addition of 1% serum and cultured in a CO2 incubator for 24 hours. After culture, the degree of inhibitory activity against HUVECs tube formation of benproperine was observed under a microscope.

[8] = tested on: DLD-1 cell (human colorectal cancer cell line in which PRL-3 is over-expressed); assay: Cytotoxicity of benproperine, WST-1 assay; format: cell-based; conditions: DLD-1 cells, 48 hours, up to 10 μM, WST-1 absorbance at 450 nm, FIG. 2
Method: In order to examine the cytotoxicity of the benproperine derivative prepared in Reference Example 1, after DLD-1 cell (ATCC-CCL-221), which is the human colorectal cancer cell lines in which PRL-3 cancer metastasis-related genes is over-expressed, was cultured in the RPMI culture medium containing 10% fetal bovine serum (FBS) and maintained at 37° C., 5% CO2, the cell was detached using 0.05% trypsin-EDTA. 4×10^3 cells which were calculated by hemocytometer were inoculated in each well of 96-well plates medium containing 10% FBS, and cultured in 37° C. incubator containing 5% CO2. After 24 hours, the culture medium of each well was replaced with new medium containing control (0.1% DMSO) and benproperine in Formula 2, which was prepared in Reference Example 1, by concentration (5 to 10 μM) and replace it with a new medium, and was cultured in 37° C., 5% CO2 incubator for 48 hours. After WST-1 (Roche) of 10 μl was added in each well of the above plate followed by 2 hours of culture, absorbance was measured at 450 nm using ELISA reader (Bio-Rad).

[9] = tested on: human-derived pancreatic cancer cell line (AsPC-1); assay: In vivo metastasis of cancer, AsPC-1 transplanted in caudal vein, bioluminescence imaging; design: species or system BALB/C nude mouse; conditions: 50 mg/kg orally, 28th day after drug administration, lung, FIG. 8
Description: In order to examine the in vivo inhibitory activity of the salt of benproperine of the present invention against metastasis of cancer, the inhibitory activity of benproperine phosphate (MD-164) against metastasis of cancer and toxicity of the same were examined by using the animal model which was transplanted with human-derived pancreatic cancer cell line (AsPC-1) in caudal vein.
To be specific, the human-derived pancreatic cancer cell line AsPC-1 (adenocarcinoma; Pancrease cancer) had been stored frozen in liquid nitrogen and it was thawed and cultured in CO2 incubator (Form a, USA) with 5% CO2 at 37° C. Specific-pathogen-free (SPF) BALB/C nude mouse (orient, Korea) was used in this experiment. […]
Secondly, in order to establish an animal model of pulmonary metastases, luciferase stably expressing AsPC-1 cell line was transplanted into a tail vein of mouse at a dose of 1×10^6 cells/mouse. […] The bioluminescence value was measured for equal area of each mouse subject, and the metastasis inhibition rate (%) in the group administered with benproperine phosphate was determined compared to a control group by the Mathematical Equation 2.
On the 28th day after drug administration, the lung of animal model was collected, the number of colony was measured, and imaging signal (photone/s/sr) was also measured.

[10] = Weight change in the AsPC-1 metastasis model (toxicity); format: in vivo, BALB/C nude mouse; conditions: 50 and 100 mg/kg orally, five times a week, total of 20 times, FIG. 7
Method: To be specific, the human-derived pancreatic cancer cell line AsPC-1 (adenocarcinoma; Pancrease cancer) had been stored frozen in liquid nitrogen and it was thawed and cultured in CO2 incubator (Form a, USA) with 5% CO2 at 37° C. Specific-pathogen-free (SPF) BALB/C nude mouse (orient, Korea) was used in this experiment.
The cultured cells were collected and diluted to a cell concentration of 5×10^6 cells/ml by adding serum free media. Then, the animal model was prepared by intravenous administration of 0.2 ml of the cell culture to each mouse. Subsequently, 5 mg/ml of benproperine phosphate (MD-164) (KRIBB, Korea) was prepared by dissolving it in 0.5% Tween80 and orally administered to the mouse at a dose of 10 ml/kg five times a week, for a total of 20 times.
First, in order to analyze the toxicity of benproperine phosphate, the weight of all test groups was measured prior to administration of the compound, three times a week during the test period.

CC(COc1ccccc1Cc1ccccc1)N1CCCCC1 (centres unmarked) [benproperine]
LD50 ([1]; Sprague-Dawley (SD), rats, single oral administration, read-out: minimum lethal dose (LD50) for oral administration): > 1000 mg/kg | clinical symptoms, death, or weight changes ([1]; po): not observed | toxic change (hematological examination, biochemical examination of blood, autopsy) ([1]; po): no toxic change | cell migration compared with DMSO-treated sample [2]: prominently inhibited | Inhibition rate (%) of metastasis [3]: 45.1% | Inhibition rate (%) of metastasis ([3]; listed as Benproperine): 45.1* % | Number of lung colony (average ± SD) ([3]; negative control 106 ± 23.3): 58.2 ± 25.8 | cell migration compared with DMSO-treated sample [4]: prominently inhibited | cell migration compared with DMSO-treated sample ([5]; 10 μM, DLD-1, FIG. 5): prominently inhibited | inhibitory activity against cell migration for colorectal cancer cell line [5]: inhibit effectively | inhibition at 5 µM ([5]; Homo sapiens, 5 μM, DLD-1, control 0.1% DMSO, FIG. 3, read-out: inhibition of migration of colorectal cancer cell compared to control): > 80% | inhibition at 10 µM ([5]; Homo sapiens, 10 μM, DLD-1, control 0.1% DMSO, FIG. 3, read-out: inhibition of migration of colorectal cancer cell compared to control): > 90% | cell migration compared with DMSO-treated sample [6]: prominently inhibited | inhibition of tube formation of HUVECs ([7]; 10 μM, compared to DMSO-treated control group): significantly | inhibition of tube formation of HUVECs ([7]; 1, 5 and 10 μM): concentration-dependent manner | cytotoxicity [8]: no cytotoxicity

CC(COc1ccccc1Cc1ccccc1)N1CCCC(O)C1 (centres unmarked) [3-hydroxybenproperine]
inhibitory activity against cell migration for colorectal cancer cell line [5]: inhibit effectively

CC(COc1ccccc1Cc1ccccc1O)N1CCCCC1 (centres unmarked) [2-hydroxybenproperine]
inhibitory activity against cell migration for colorectal cancer cell line [5]: inhibit effectively

benproperine phosphate
inhibition rate against metastasis compared to a control group [9]: 71.5% | weight loss in comparison to a control group [10]: no significant weight loss
